# Measured values reported in patent US5100913A, “Novel sulfonylphenyl-β-D-thioxylosides, their method of preparation and their use in therapeutics” (Fournier Industrie et Sante, priority 1990, dated 1992).
# Tested on: venous thrombosis
# Assay: antithrombotic activity, venous thrombosis: venous stasis under hypercoagulation (Wessler), thrombus removed and weighed
# Format: in vivo, male Wistar rats
# Conditions: Rattus norvegicus, oral, suspension in PEG 400, thrombosis induced 4 hours after treatment
# Description: A venous stasis under hypercoagulation is produced according to the technique described by WESSLER et al. (J. Applied Physiol. 1959, p. 943-946). As in the technique described by J. HAUPMAN et al. (Thrombosis and Haemostasis 43(2), 1980, p. 118), the hypercoagulant used is a solution of activated factor X (Xa) supplied by Flow Laboratories (71 Knat per 12.5 ml of isotonic solution).
# The study is performed on unfasted male Wistar rats weighing 250 to 280 g, divided into groups of 10 animals each. The test products are administered orally as a suspension in PEG 400. A thrombosis is induced 4 hours after this treatment and the thrombus formed is removed and weighed.
# The results obtained at a dose of 3 mg/kg, administered orally, have been collated in Table I. The results obtained with the known products of the afore-mentioned prior art have also been collated in this Table.
row,Compound,inhibition in vivo at 3 mg/kg [%]
1,CS(=O)(=O)c1cccc(S[C@@H]2SC[C@@H](O)[C@H](O)[C@H]2O)c1 [Example 12],43
2,"CN(C)S(=O)(=O)c1ccc(S[C@@H]2SC[C@@H](O)[C@H](O)[C@H]2O)cc1 [Example 18, 4-(N,N-dimethylsulfonamidyl)phenyl 1.5-dithio-β-D-xylopyranoside]",46
3,"O=S(=O)(c1ccc(F)cc1)c1ccc(S[C@@H]2SC[C@@H](O)[C@H](O)[C@H]2O)cc1 [Example 14, 4-[(4-fluorophenyl)sulfonyl]phenyl 1,5-dithio-β-D-xylpyranoside]",61
4,"CS(=O)(=O)c1ccccc1S[C@@H]1SC[C@@H](O)[C@H](O)[C@H]1O [Example 4, 2-(methylsulfonyl)phenyl 1.5-dithio-β-D-xylopyranoside]",26
5,"CC(=O)O[C@@H]1[C@@H](OC(C)=O)[C@H](Sc2ccccc2S(C)(=O)=O)SC[C@H]1OC(C)=O [Example 3, 2-(methylsulfonyl)phenyl 2,3,4-tri-O-acetyl-1,5-dithio-β-D-xylopyranoside]",29
6,CC(=O)O[C@@H]1[C@@H](OC(C)=O)[C@H](Sc2ccc(S(=O)(=O)c3ccc(F)cc3)cc2)SC[C@H]1OC(C)=O [Example 13],58
7,"CC(=O)O[C@@H]1[C@@H](OC(C)=O)[C@H](OC(C)=O)CS[C@H]1Oc1ccc(S(=O)(=O)N(C)C)cc1 [Example 19, 4-(N,N-dimethylsulfonamidyl)phenyl 2,3,4-tri-O-acetyl-5-thio-β-D-xylpyranoside]",23
8,"CCS(=O)(=O)c1ccc(S[C@@H]2SC[C@@H](OC(C)=O)[C@H](OC(C)=O)[C@H]2OC(C)=O)cc1 [Example 9, 4-(ethylsulfonyl)phenyl 2,3,4-tri-O-acetyl-1,5-dithio-β-D-xylpyranoside]",31
9,"CC(=O)O[C@@H]1[C@@H](OC(C)=O)[C@H](Sc2ccc(S(=O)(=O)c3ccccc3)cc2)SC[C@H]1OC(C)=O [Example 1, 4-(phenylsulfonyl)phenyl 2,3,4-tri-O-acetyl-1,5-dithio-β-D-xylopyranoside]",20
10,"CCS(=O)(=O)c1ccc(S[C@@H]2SC[C@@H](O)[C@H](O)[C@H]2O)cc1 [Example 10, 4-(ethylsulfonyl)phenyl 1,5dithio-β-D-xylopyranoside]",31
11,"O=S(=O)(c1ccccc1)c1ccc(S[C@@H]2SC[C@@H](O)[C@H](O)[C@H]2O)cc1 [Example 2, 4-(phenylsulfonyl)phenyl 1,5-dithio-β-D-xylopyranoside]",49
12,"O=S(=O)(c1ccc(S[C@@H]2SC[C@@H](O)[C@H](O)[C@H]2O)cc1)N1CCCCC1 [Example 22, 4-(N-(piperidin-1-yl)sulfonamidyl)phenyl 1,5-dithio-β-D-xylpyranoside]",47
13,"CS(=O)(=O)c1ccc(O[C@@H]2SC[C@@H](O)[C@H](O)[C@H]2O)cc1 [Example 8, 4-(methylsulfonyl)phenyl 5-thio-β-D-xylpyranoside]",30
14,"CN(C)S(=O)(=O)c1ccc(O[C@@H]2SC[C@@H](O)[C@H](O)[C@H]2O)cc1 [Example 20, 4-(N,N-dimethylsulfonamidyl)phenyl 5-thio-β-D-xylpyranoside]",58
15,"CC(=O)O[C@@H]1[C@@H](OC(C)=O)[C@H](Sc2ccc(S(=O)(=O)N(C)C)cc2)SC[C@H]1OC(C)=O [Example 17, 4-(N,N-dimethylsulfonamidyl)phenyl 2,3,4-tri-O-acetyl-1,5-dithio-β-D-xylpyranoside]",56
16,"N#Cc1ccc(S(=O)(=O)c2ccc(S[C@@H]3SC[C@@H](O)[C@H](O)[C@H]3O)cc2)cc1 [Example 16, 4-((4-cyanophenyl)sulfonyl)phenyl 1,5-dithio-β-D-xylopyranoside]",66
17,"CS(=O)(=O)c1ccc(S[C@@H]2SC[C@@H](O)[C@H](O)[C@H]2O)cc1 [Example 6, 4-(methylsulfonyl)phenyl 1,5-dithio-β-D-xylopyranoside]",61
